Experimental data: patent US7282494B2, “Heteroaryl diazacycloalkanes, their preparation and use” (Neurosearch A/S, priority 1909, dated 2007)
Counter-ions that a name gives are not always drawn. Like-named read-outs stand apart in the source and are kept apart here.

Experiments:
[1] = biological target: nAChR formed by the α7 subunit isoform (Rattus norvegicus, UniProt Q05941); test: In vitro inhibition of 3H-α-bungarotoxine binding rat brain (Assay III)
[2] = biological target: T1, neuronal nicotinic receptors (3H-epibatidine binding sites; high affinity site α4β2 subtype) (Rattus norvegicus, UniProt P09483+P12390); test: biochemical
T1 sequence (P09483 31-630): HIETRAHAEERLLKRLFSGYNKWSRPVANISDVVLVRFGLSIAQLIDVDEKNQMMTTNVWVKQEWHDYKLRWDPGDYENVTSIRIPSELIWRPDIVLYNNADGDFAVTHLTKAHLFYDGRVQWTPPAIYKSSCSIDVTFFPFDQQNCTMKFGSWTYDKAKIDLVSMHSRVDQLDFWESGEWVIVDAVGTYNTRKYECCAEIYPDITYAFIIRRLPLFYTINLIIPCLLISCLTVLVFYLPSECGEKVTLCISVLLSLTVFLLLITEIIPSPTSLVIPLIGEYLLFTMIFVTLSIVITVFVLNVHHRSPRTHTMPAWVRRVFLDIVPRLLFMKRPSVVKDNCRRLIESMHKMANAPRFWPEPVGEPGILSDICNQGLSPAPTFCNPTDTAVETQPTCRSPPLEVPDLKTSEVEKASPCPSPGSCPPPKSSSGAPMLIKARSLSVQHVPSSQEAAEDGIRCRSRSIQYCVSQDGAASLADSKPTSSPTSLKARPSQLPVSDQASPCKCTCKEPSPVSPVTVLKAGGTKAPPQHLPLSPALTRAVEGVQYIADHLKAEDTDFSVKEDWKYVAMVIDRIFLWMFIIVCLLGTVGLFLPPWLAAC
T1 sequence (P12390 25-500): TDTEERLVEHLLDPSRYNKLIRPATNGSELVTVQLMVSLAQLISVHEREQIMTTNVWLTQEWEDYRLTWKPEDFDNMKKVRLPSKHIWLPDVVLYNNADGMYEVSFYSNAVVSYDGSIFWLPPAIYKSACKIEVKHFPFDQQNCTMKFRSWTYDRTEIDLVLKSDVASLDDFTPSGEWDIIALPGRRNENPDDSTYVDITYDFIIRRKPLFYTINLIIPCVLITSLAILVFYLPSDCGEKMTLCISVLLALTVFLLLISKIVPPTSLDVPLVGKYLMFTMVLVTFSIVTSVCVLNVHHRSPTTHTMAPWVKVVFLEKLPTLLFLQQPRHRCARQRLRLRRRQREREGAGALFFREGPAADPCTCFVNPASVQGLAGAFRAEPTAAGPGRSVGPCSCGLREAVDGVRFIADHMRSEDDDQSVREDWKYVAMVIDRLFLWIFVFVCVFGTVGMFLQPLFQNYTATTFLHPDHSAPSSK

[3] = biological target: T1, neuronal nicotinic receptors (3H-epibatidine binding sites; high affinity site α4β2 subtype)
[4] = 3H-α-bungarotoxine 2 nM, cerebral cortices from male Wistar rats, 2 h at 37° C., read-out: Assay III IC50

nAChR formed by the α7 subunit isoform, sequence (Q05941 23-502): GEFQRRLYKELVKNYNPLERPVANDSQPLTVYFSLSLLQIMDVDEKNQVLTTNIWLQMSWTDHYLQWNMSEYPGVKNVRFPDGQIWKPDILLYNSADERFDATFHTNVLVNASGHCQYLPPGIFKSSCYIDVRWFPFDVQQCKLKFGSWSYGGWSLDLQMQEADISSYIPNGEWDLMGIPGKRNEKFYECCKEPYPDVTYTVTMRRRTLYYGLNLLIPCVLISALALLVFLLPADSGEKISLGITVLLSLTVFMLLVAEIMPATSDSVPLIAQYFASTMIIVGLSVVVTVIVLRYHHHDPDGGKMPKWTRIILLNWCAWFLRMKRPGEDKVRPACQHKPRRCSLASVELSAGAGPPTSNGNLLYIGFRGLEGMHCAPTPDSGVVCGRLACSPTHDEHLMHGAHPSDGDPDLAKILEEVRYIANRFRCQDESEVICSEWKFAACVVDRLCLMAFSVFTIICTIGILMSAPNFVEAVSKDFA

Compound | melting point | IC50 [1, 4] | IC50 [2] | other results
Clc1cc(N2CCCNCC2)cnc1Br (as salt: fumaric acid salt) [1-(6-Bromo-5-chloro-3-pyridyl)-homopiperazine] | 213 to 216 °C |  |  | 
C=COc1cc(N2CCCNCC2)cnc1Br (as salt: fumaric acid salt) | 128.6 °C |  |  | 
c1ncc(N2CCCNCC2)cc1N1CCCC1 [1-[5-(N-pyrrolidinyl)-3-pyridyl]-homopiperazine] |  | 5000 nM | 40 nM | 
c1ncc(N2CCCNCC2)cc1N1CCC1 (as salt: fumaric acid salt) | 143.5 to 146.9 °C |  |  | 
C=COc1cncc(N2CCCN(c3cncc(OC=C)c3)CC2)c1 (as salt: fumaric acid salt) | 157 to 158.5 °C |  |  | 
c1ncc(N2CCCNCC2)cc1N1CCCC1 (as salt: fumaric acid salt) [1-[5-(N-pyrrolidinyl)-3-pyridyl]-homopiperazine] | 141.5 to 143 °C |  |  | 
c1ncc(N2CCCNCC2)cc1OCC1CCC1 [1-[5-(Cyclobutylmethoxy)-3-pyridyl]-homopiperazine] |  | > 30000 nM | 4 nM | 
CCCCCOc1cncc(N2CCN(C)CC2)c1 (as salt: fumaric acid salt) | 113.6 to 115.1 °C |  |  | 
Clc1cncc(N2CCCNCCC2)c1 (as salt: fumaric acid salt) | 186 to 187 °C |  |  | 
COc1cc(N2CCCNCC2)cnc1Br (as salt: fumaric acid salt) | 210 to 212 °C |  |  | 
CCCC=CCOc1cncc(N2CCCNCC2)c1 [1-[5-(Hex-2-en-ox)-3-pyridyl]-homopiperazine] |  | 47000 nM | 8 nM | 
C=CCN1CCCN(c2cncc(OCC)c2)CC1 [1-(5-Ethoxy-3-pyridyl)-4-(prop-2-en-1-yl-)-homopiperazine] |  |  |  | IC50 [1]: > 30000 nM
CCCC=CCOc1cncc(N2CCCNCC2)c1 (as salt: fumaric acid salt) [1-[5-(Hex-2-en-ox)-3-pyridyl]-homopiperazine] | 126.8 to 130.2 °C |  |  | 
CCCCOc1cncc(N2CCCNCCC2)c1 [1-[5-(Butoxy)-3-pyridyl]-1,5-diazacyclooctane] |  |  | 3 nM | 
Clc1cc(N2CCCNCC2)cnc1Cl (as salt: fumaric acid salt) [1-(5,6-Dichloro-3-pyridyl)-homopiperazine] | 172.2 to 173.4 °C |  |  | 
CCC(CC)COc1cncc(N2CCCNCC2)c1 [1-[5-(2-Ethyl-1-butoxy)-3-pyridyl]-homopiperazine] |  | > 30000 nM | 13 nM | 
C=CC(C)Oc1cncc(N2CCCNCC2)c1 (stereo not shown) (as salt: fumaric acid salt) [1-[5-(1-Methyl-1-prop-2-en-oxy)-3-pyridyl]-homopiperazine] | 129.5 to 133.6 °C |  |  | 
Brc1cc(N2CCCNCC2)cnc1Br [1-(5,6-Dibromo-3-pyridyl)-homopiperazine] |  | 3000 nM | 1 nM | 
c1ncc(N2CCCNCC2)cc1OCC1CCC1 (as salt: fumaric acid salt) [1-[5-(Cyclobutylmethoxy)-3-pyridyl]-homopiperazine] | 158.9 to 159.9 °C |  |  | 

Compound | melting point | IC50 [1, 4] | IC50 [2] | other results
CCC(CC)COc1cncc(N2CCCNCC2)c1 (as salt: fumaric acid salt) [1-[5-(2-Ethyl-1-butoxy)-3-pyridyl]-homopiperazine] | 113.7 to 115.9 °C |  |  | 
CC1OC1Oc1cncc(N2CCCNCC2)c1 (stereo not shown) [1-[5-(Propyl-1,2-epoxy-1-oxy)-3-pyridyl]-homopiperazine] | 135.2 to 139 °C | 58000 nM | 40 nM | 
Clc1cc(N2CCCNCC2)cnc1Cl [1-(5,6-Dichloro-3-pyridyl)-homopiperazine] |  | < 3000 nM | 2 nM | 
CC(C)=COc1cncc(N2CCCNCC2)c1 [1-[5-(2-Methyl-1-prop-1-en-oxy)-3-pridyl]-homopiperazine] |  | 85000 nM |  | IC50 [3]: 20 nM
Brc1ccc(N2CCCNCC2)nn1 [1-(6-Bromo-3-pyridazinyl)-homopiperazine] |  | 1500 nM | 70 nM | 
Brc1ccc(N2CCCNCC2)nn1 (as salt: fumaric acid salt) [1-(6-Bromo-3-pyridazinyl)-homopiperazine] | 169 to 171 °C |  |  | 
C(#Cc1cncc(N2CCCNCC2)c1)c1ccccc1 (as salt: fumaric acid salt) [1-(5-Phenylacetylenyl-3-pyridyl)-homopiperazine] | 155.2 to 157.8 °C |  |  | 
Clc1ncc(N2CCCNCC2)cc1Br [1-(5-Bromo-6-chloro-3-pyridyl)-homopiperazine] |  | < 3000 nM | 1 nM | 
Brc1cncc(N2CCCNCCC2)c1 (as salt: fumaric acid salt) | 151 to 153 °C |  |  | 
CCOc1cncc(N2CCCN(c3cncc(OCC)c3)CC2)c1 (as salt: fumaric acid salt) | 155 to 156 °C |  |  | 
CCCCN(C)c1cncc(N2CCCNCC2)c1 (as salt: fumaric acid salt) [1-[5-(N-Butyl-N-methylamino)-3-pyridyl]homopiperazine] | 140.5 to 141.8 °C |  |  | 
C(#Cc1cncc(N2CCCNCC2)c1)c1ccccc1 [1-(5-Phenylacetylenyl-3-pyridyl)-homopiperazine] |  | 11000 nM | 5 nM | 
Clc1ncc(N2CCCNCC2)cc1Br (as salt: fumaric acid salt) [1-(5-Bromo-6-chloro-3-pyridyl)-homopiperazine] | 188.2 to 189.2 °C |  |  | 
Brc1cc(N2CCCNCC2)cnc1Br (as salt: fumaric acid salt) [1-(5,6-Dibromo-3-pyridyl)-homopiperazine] | 192.1 to 193.2 °C |  |  | 
Ic1cncc(N2CCCNCC2)c1 (as salt: fumaric acid salt) | 178 to 180 °C |  |  | 
C=COc1cc(N2CCCNCC2)cnc1Cl (as salt: fumaric acid salt) | 183 to 185 °C |  |  | 
Clc1cc(N2CCCNCC2)cnc1Br [1-(6-Bromo-5-chloro-3-pyridyl)-homopiperazine] |  | < 3000 nM | 2 nM | 
C=CC(C)Oc1cncc(N2CCCNCC2)c1 (stereo not shown) [1-[5-(1-Methyl-1-prop-2-en-oxy)-3-pyridyl]-homopiperazine] |  | 11000 nM | 52 nM | 
CCOc1cncc(N2CCCN(CC)CC2)c1 [1-(5-Ethoxy-3-pyridyl)-4-ethyl-homopiperazine] |  |  |  | IC50 [1]: > 30000 nM
